Data: ChEMBL document CHEMBL2074246, “Distinct groups of multidrug resistance modulating agents are distinguished by competition of P-glycoprotein-specific antibodies” (Biochem Biophys Res Commun, 2004)

Columns and labels:
Format in all cases: functional, cell-based
[1] = biological target: T1, ATP-dependent translocase ABCB1 (Homo sapiens, UniProt P08183); assay: TP_TRANSPORTER: increase in Calcein-AM intracellular accumulation (Calcein-AM: 0.5 uM, Puromycin: 20 uM) in MDR1-expressing NIH-3T3 cells; settings: mouse, nih3t3, 20 µM
[2] = biological target: T1, ATP-dependent translocase ABCB1; assay: TP_TRANSPORTER: increase in Calcein-AM intracellular accumulation (Calcein-AM: 0.5 uM, Taxol: 20 uM) in MDR1-expressing NIH-3T3 cells; settings: mouse, nih3t3, 20 µM
[3] = biological target: T1, ATP-dependent translocase ABCB1; assay: TP_TRANSPORTER: increase in Calcein-AM intracellular accumulation (Calcein-AM: 0.5 uM, Vincristine: 200 uM) in MDR1-expressing NIH-3T3 cells; settings: mouse, nih3t3, 200 µM
[4] = biological target: T1, ATP-dependent translocase ABCB1; assay: TP_TRANSPORTER: increase in Calcein-AM intracellular accumulation (Calcein-AM: 0.5 uM, Oligomycin: 5 uM) in MDR1-expressing NIH-3T3 cells; settings: mouse, nih3t3, 5 µM
[5] = biological target: T1, ATP-dependent translocase ABCB1; assay: TP_TRANSPORTER: increase in Calcein-AM intracellular accumulation (Calcein-AM: 0.5 uM, Prazosin: 10 uM) in MDR1-expressing NIH-3T3 cells; settings: mouse, nih3t3, 10 µM

T1 sequence (P08183 whole entry): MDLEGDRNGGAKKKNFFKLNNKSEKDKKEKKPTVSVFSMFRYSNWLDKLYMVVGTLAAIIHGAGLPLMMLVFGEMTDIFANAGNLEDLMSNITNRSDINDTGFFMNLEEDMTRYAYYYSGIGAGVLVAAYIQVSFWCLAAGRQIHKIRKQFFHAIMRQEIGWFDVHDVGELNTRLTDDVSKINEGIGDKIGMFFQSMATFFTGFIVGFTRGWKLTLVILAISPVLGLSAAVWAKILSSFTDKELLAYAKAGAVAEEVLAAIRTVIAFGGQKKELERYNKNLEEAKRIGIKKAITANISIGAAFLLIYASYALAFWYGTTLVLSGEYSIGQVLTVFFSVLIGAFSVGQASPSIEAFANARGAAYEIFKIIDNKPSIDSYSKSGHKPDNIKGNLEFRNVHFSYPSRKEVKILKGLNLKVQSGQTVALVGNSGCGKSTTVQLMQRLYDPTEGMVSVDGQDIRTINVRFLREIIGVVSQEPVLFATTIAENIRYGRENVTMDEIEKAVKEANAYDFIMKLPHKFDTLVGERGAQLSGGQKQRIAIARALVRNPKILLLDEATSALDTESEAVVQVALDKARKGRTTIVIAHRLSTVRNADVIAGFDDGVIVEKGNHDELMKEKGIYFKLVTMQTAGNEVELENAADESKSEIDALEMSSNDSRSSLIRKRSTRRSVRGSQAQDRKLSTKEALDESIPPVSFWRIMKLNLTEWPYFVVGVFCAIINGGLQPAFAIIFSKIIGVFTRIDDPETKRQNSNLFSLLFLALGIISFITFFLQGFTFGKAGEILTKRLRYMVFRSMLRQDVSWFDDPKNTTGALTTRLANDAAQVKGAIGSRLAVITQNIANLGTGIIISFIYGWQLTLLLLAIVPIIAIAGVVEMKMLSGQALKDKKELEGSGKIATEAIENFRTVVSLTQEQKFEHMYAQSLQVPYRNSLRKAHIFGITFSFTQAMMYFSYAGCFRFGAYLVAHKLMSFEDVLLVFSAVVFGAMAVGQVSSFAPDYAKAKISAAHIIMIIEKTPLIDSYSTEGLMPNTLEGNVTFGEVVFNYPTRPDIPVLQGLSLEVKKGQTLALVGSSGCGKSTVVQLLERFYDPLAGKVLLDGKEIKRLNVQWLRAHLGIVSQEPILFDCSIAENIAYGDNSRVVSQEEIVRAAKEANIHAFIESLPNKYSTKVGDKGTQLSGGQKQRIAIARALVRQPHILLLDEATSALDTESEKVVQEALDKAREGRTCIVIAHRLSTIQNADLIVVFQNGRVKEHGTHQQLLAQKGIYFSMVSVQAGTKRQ

COc1ccc(C[C@H](N)C(=O)N[C@H]2[C@@H](O)[C@H](n3cnc4c(N(C)C)ncnc43)O[C@@H]2CO)cc1 [PUROMYCIN]
Activity [1]: is not an inhibitor [-]

CC(=O)O[C@H]1C(=O)[C@@]2(C)[C@H]([C@H](OC(=O)c3ccccc3)[C@]3(O)C[C@H](OC(=O)[C@H](O)[C@@H](NC(=O)c4ccccc4)c4ccccc4)C(C)=C1C3(C)C)[C@]1(OC(C)=O)CO[C@@H]1C[C@@H]2O [PACLITAXEL]
Activity [2]: is not an inhibitor [-]

CC[C@]1(O)C[C@H]2CN(CCc3c([nH]c4ccccc34)[C@@](C(=O)OC)(c3cc4c(cc3OC)N(C=O)[C@H]3[C@@](O)(C(=O)OC)[C@H](OC(C)=O)[C@]5(CC)C=CCN6CC[C@]43[C@@H]65)C2)C1 [VINCRISTINE]
Activity [3]: is not an inhibitor [-]

CC[C@H]1/C=C/C=C/C[C@@H](C)[C@H](O)[C@@](C)(O)C(=O)[C@@H](C)[C@H](O)[C@@H](C)C(=O)[C@@H](C)[C@H](O)[C@@H](C)/C=C/C(=O)O[C@@H]2[C@H](C)[C@H](CC1)O[C@]1(CC[C@H](C)[C@H](C[C@@H](C)O)O1)[C@H]2C [OLIGOMYCIN]
Activity [4]: is not an inhibitor [-]

COc1cc2nc(N3CCN(C(=O)c4ccco4)CC3)nc(N)c2cc1OC [PRAZOSIN]
Activity [5]: is not an inhibitor [-]
